{
  "source": "patent US20190247376A1",
  "about": "“NICOTINIC ACETYLCHOLINE RECEPTOR AGONIST ATTENUATES ILC2-DEPENDENT AIRWAY HYPERREACTIVITY” (University of Southern California, priority 2016, published 2019)",
  "key": {"lung ILC2s": {"test_system": "lung ILC2s", "experiment": "Gene expression analysis of ILC2s with NanoString nCounter technology", "type": "cell-based, mouse", "conditions": "ILC2s from rm-IL-33 challenged mice with or without agonist", "source_text": "FIGS. 5A-5F: Cholinergic signal attenuates ILC2 proliferation and GATA3 expression. (FIG. 5A) Mean fluorescence intensity of Ki67 and percentage of Ki67+ cells in isolated lung ILC2s, stimulated with IL-33 in the absence and presence of α7nAChR. (FIG. 5B) Mean fluorescence intensity of GATA3 in isolated lung ILC2s, stimulated with IL-33 in the absence and presence of α7nAChR. One representative experiment of two is shown (n=5; Student's t test *, p<0.05; **, p<0.01; ***p<0.001). […] FACS-purified ILC2s from WT mice challenged with rm-IL-33 with or without α7nAChR agonist as described in FIG. 3A were quantified by NanoString nCounter technology. Data range from −1 to +1 for the most reduced and most increased gene expression, respectively. (FIG. 5D) Expression of NF-κB p65 in isolated lung ILC2s from mice challenged with IL-33 with (dotted line) or without (thick line) α7nAChR agonist. The level of isotype-matched stain control is shown as a gray-filled histogram. (FIG. 5E) Expression of phosphorylated IKKα/β (Ser176/180) in isolated lung ILC2s stimulated with IL-33, with (dotted line) or without (thick line) α7nAChR agonist for 24 hours. The level of isotype-matched stain control is shown as a gray-filled histogram. (FIG. 5F) Mean fluorescence intensity of phosphorylated IKKα/β with or without α7nAChR agonist.\nNext, to investigate the molecular mechanism of α7nAChR agonist-mediated anti-inflammatory effects, Applicants analyzed the gene expression profile of ILC2s with or without α7nAChR agonist treatment by NanoString technology as described in the methods. […] Applicants further confirmed by flow cytometry that α7nAChR agonist reduced NF-κB p65 expression in ILC2s (FIG. 5D). To better establish the underlying mechanisms, Applicants explored the signaling pathway upstream of NF-κB by measuring the activated form of IKKα/β, which is phosphorylated on serine residues 176 and 180. Consistent with our previous results shown in FIG. 5D, α7nAChR agonist reduced phosphorylated IKKα/β expression in ILC2s (FIGS. 5E-5F). NF-κB and STAT-6 are both critical for GATA-3 transcription. The inhibition of GATA-3 expression results in a down-regulation of IL-5, IL-9 and IL-13 secretion from ILC2s.\nThe difference in the abundance of scripts between ILC2s purified from rm-IL33 administered mice with or without α7nAChR agonist were analyzed with NanoString nCounter technology. Heat plots were generated with R statistical software."}, "[1]": {"test_system": "Rag2 GC double knockout mice with adoptively transferred human ILC2s", "experiment": "Human ILC2-mediated AHR in humanized ILC2 mice", "type": "in vivo, mouse", "conditions": "i.n. IL-33, agonist three consecutive days", "procedure": "FIGS. 7A-7E: α7nAChR agonist prevents human ILC2s mediated AHR and allergic. (FIG. 7A) Human ILC2s were purified from PBMCs via FACS and cultured (10^4 cells per mL) in the presence of recombinant human IL-33 (20 ng mL^−1), IL-2 (10 ng mL^−1), and IL-7 (20 ng mL^−1), with or without α7nAChR agonist for 24h. In the right panel, data are presented as means of four individual donors. […]\nFinally, to confirm the efficacy of α7nAChR agonist treatment in human ILC2-mediated AHR, sorted human ILC2s (hILC2s) were cultured in the presence of rh-IL-2 (20 ng mL^−1) and rh-IL-7 (20 ng mL^−1) for 48 hours. […] These humanized mice were given i.n. rh-IL33 (1 μg per mice) with or without α7nAChR agonists (125 µg mL^−1) for three consecutive days, and then AHR was evaluated (FIG. 7B). […]\nFor human peripheral ILC2s, peripheral blood mononuclear cells (PBMCs) were first isolated from human fresh blood by diluting the blood 1:1 in PBS, adding to SepMate™-50 separation tubes (STEMCELL Technologies Inc, Vancouver, Canada) prefilled with 15-mL Lymphoprep™ each (Axis-Shield, Oslo, Norway), and centrifuging at 1200 g for 15 minutes. […] On day 4, lung function was measured and BAL was performed and analyzed."}},
  "data": [
    {"smiles": "COc1ccc(/C=C2\\CCCN=C2c2cccnc2)c(OC)c1", "note": "[GTS-21, 3-[(3E)-3-[(2,4-dimethoxyphenyl)methylidene]-5,6-dihydro-4H-pyridin-2-yl]pyridine]", "values": [
      {"measurement": "RelA expression", "setting": "lung ILC2s", "value": "unaffected"},
      {"measurement": "expression at the mRNA level of NF-κB1", "setting": "lung ILC2s", "value": "decrease"},
      {"measurement": "expression of GATA-3, STAT-6, NF-κB, IL-5, IL-9 and IL-13 (IL-33/IL-25 signaling pathway genes)", "setting": "lung ILC2s", "value": "inhibited"},
      {"measurement": "expression of STAT-5a, STAT-5b, and IL-2 receptors (IL-2/IL-7 signaling panel)", "setting": "lung ILC2s", "value": "relatively unaffected"},
      {"measurement": "factors associated with apoptosis (Casp3, Casp8, Bcl-2)", "setting": "lung ILC2s", "value": "did not activate"},
      {"measurement": "ILC2-mediated AHR (lung resistance)", "setting": "[1]", "value": "dampened"},
      {"measurement": "allergic inflammation (eosinophils in BALF, lung ILC2s)", "setting": "[1]", "value": "dampened"}
    ]}
  ]
}
